In BindingDB's records for doi:10.1021/jm000541z (Abbott Laboratories, 2001):

The molecules below were run against Alpha-1B adrenergic receptor (Mesocricetus auratus) (UniProt P18841) (assay: Binding affinity to hamster alpha-1B adrenergic receptor).
Chain of Alpha-1B adrenergic receptor (Mesocricetus auratus) (P18841 whole entry, looked up): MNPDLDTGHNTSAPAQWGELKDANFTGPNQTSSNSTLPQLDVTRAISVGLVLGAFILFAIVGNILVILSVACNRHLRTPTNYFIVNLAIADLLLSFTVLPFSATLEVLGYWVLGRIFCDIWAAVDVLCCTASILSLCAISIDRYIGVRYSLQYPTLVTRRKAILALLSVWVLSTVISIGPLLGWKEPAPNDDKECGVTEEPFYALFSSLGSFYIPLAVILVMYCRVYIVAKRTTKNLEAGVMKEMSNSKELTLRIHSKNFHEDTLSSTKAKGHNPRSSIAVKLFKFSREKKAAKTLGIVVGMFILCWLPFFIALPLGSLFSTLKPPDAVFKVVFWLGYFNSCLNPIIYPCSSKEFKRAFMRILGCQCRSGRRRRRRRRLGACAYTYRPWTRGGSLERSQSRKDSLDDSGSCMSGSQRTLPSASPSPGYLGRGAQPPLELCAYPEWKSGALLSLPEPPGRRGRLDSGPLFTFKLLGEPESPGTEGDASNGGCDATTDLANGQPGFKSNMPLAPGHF
`COc1cccc2c1CC[C@H]1CN(CCn3c(=O)[nH]c4cc(Cl)ccc4c3=O)C[C@@H]21` [7-Chloro-3-[2-(6-methoxy-1,3,3a,4,5,9b-hexahydro-benzo[e]isoindol-2-yl)-ethyl]-1H-quinazoline-2,4-dione] was tested, and the Ki was 2.71 nM.
Work on `COc1cc2c(cc1OC)CN(CCN1C[C@@H]3CCc4c(OC)cccc4[C@@H]3C1)CC2` [2-[2-(6,7-Dimethoxy-3,4-dihydro-1H-isoquinolin-2-yl)-ethyl]-6-methoxy-2,3,3a,4,5,9b-hexahydro-1H-benzo[e]isoindole] yielded a Ki of 116 nM.
`COc1cccc2c1CC[C@H]1CN(CCn3c(=O)[nH]c4ccncc4c3=O)C[C@@H]21` [3-[2-(6-Methoxy-1,3,3a,4,5,9b-hexahydro-benzo[e]isoindol-2-yl)-ethyl]-1H-pyrido[4,3-d]pyrimidine-2,4-dione] was tested, and the Ki was 10.6 nM.
`COc1ccc2[nH]c(=O)n(CCN3C[C@@H]4CCc5c(OC)cccc5[C@@H]4C3)c(=O)c2c1` [6-Methoxy-3-[2-(6-methoxy-1,3,3a,4,5,9b-hexahydro-benzo[e]isoindol-2-yl)-ethyl]-1H-quinazoline-2,4-dione] gave a Ki of 3.76 nM.
For `COc1cc2[nH]c(=O)n(CCN3C[C@@H]4CCc5c(OC)cccc5[C@@H]4C3)c(=O)c2s1` [6-Methoxy-3-[2-(6-methoxy-1,3,3a,4,5,9b-hexahydro-benzo[e]isoindol-2-yl)-ethyl]-1H-thieno[3,2-d]pyrimidine-2,4-dione], the Ki was 0.74 nM.
In the case of `COc1cc2ncn(CCN3C[C@@H]4CCc5c(OC)cccc5[C@@H]4C3)c(=O)c2cc1OC` [6,7-Dimethoxy-3-[2-(6-methoxy-1,3,3a,4,5,9b-hexahydro-benzo[e]isoindol-2-yl)-ethyl]-3H-quinazolin-4-one], the Ki is reported as 15.3 nM.
For `COc1cc2c(cc1OC)NC(=O)N(CCN1C[C@@H]3CCc4c(OC)cccc4[C@@H]3C1)C2` [6,7-Dimethoxy-3-[2-(6-methoxy-1,3,3a,4,5,9b-hexahydro-benzo[e]isoindol-2-yl)-ethyl]-3,4-dihydro-1H-quinazolin-2-one], the Ki was 191 nM.
Molecule `COc1cc(N)c(C(=O)NCCN2C[C@@H]3CCc4c(OC)cccc4[C@@H]3C2)cc1OC` [2-Amino-4,5-dimethoxy-N-[2-(6-methoxy-1,3,3a,4,5,9b-hexahydro-benzo[e]isoindol-2-yl)-ethyl]-benzamide] has a Ki of 29.1 nM.
`COc1cccc2c1CC[C@H]1CN(CCn3c(=O)[nH]c4cccc(Cl)c4c3=O)C[C@@H]21` [5-Chloro-3-[2-(6-methoxy-1,3,3a,4,5,9b-hexahydro-benzo[e]isoindol-2-yl)-ethyl]-1H-quinazoline-2,4-dione] gave a Ki of 0.92 nM.
Molecule `COc1cccc2c1CC[C@H]1CN(CCn3c(=O)[nH]c4[nH]ccc4c3=O)C[C@@H]21` [3-[2-(6-Methoxy-1,3,3a,4,5,9b-hexahydro-benzo[e]isoindol-2-yl)-ethyl]-1,7-dihydro-pyrrolo[2,3-d]pyrimidine-2,4-dione] has a Ki of 2.58 nM.
`COC(=O)c1cc2[nH]c(=O)n(CCN3C[C@@H]4CCc5c(OC)cccc5[C@@H]4C3)c(=O)c2s1` [3-[2-(6-Methoxy-1,3,3a,4,5,9b-hexahydro-benzo[e]isoindol-2-yl)-ethyl]-2,4-dioxo-1,2,3,4-tetrahydro-thieno[3,2-d]pyrimidine-6-carboxylic acid methyl ester] was tested, and the Ki was 3.37 nM.
`COc1cccc2c1CC[C@H]1CN(CCn3c(=O)[nH]c4c(C)c(OC)sc4c3=O)C[C@@H]21` [6-Methoxy-3-[2-(6-methoxy-1,3,3a,4,5,9b-hexahydro-benzo[e]isoindol-2-yl)-ethyl]-7-methyl-1H-thieno[3,2-d]pyrimidine-2,4-dione] was tested, and the Ki was 7.14 nM.
Molecule `COc1cccc2c1CC[C@H]1CN(CCn3c(=O)[nH]c4sccc4c3=O)C[C@@H]21` [3-[2-(6-Methoxy-1,3,3a,4,5,9b-hexahydro-benzo[e]isoindol-2-yl)-ethyl]-1H-thieno[2,3-d]pyrimidine-2,4-dione] has a Ki of 2.11 nM.
`COc1cccc2c1CC[C@H]1CN(CCn3c(=O)[nH]c4cccc(C)c4c3=O)C[C@@H]21` [3-[2-(6-Methoxy-1,3,3a,4,5,9b-hexahydro-benzo[e]isoindol-2-yl)-ethyl]-5-methyl-1H-quinazoline-2,4-dione] was tested, and the Ki was 1.04 nM.
`COc1cccc2c1CC[C@H]1CN(CCn3c(=O)[nH]c4c(C(C)C)c(OC)sc4c3=O)C[C@@H]21` [7-Isopropyl-6-methoxy-3-[2-(6-methoxy-1,3,3a,4,5,9b-hexahydro-benzo[e]isoindol-2-yl)-ethyl]-1H-thieno[3,2-d]pyrimidine-2,4-dione] showed a Ki of 2.31 nM.
Work on `COc1cccc2c1CC[C@H]1CN(CCn3c(=O)[nH]c4c(C)c(C)ccc4c3=O)C[C@@H]21` [3-[2-(6-Methoxy-1,3,3a,4,5,9b-hexahydro-benzo[e]isoindol-2-yl)-ethyl]-7,8-dimethyl-1H-quinazoline-2,4-dione] yielded a Ki of 1.32 nM.
For `COc1cccc2c1CC[C@H]1CN(CCn3c(=O)[nH]c4cc(NC(C)=O)ccc4c3=O)C[C@@H]21` [N-{3-[2-(6-Methoxy-1,3,3a,4,5,9b-hexahydro-benzo[e]isoindol-2-yl)-ethyl]-2,4-dioxo-1,2,3,4-tetrahydro-quinazolin-7-yl}-acetamide], the Ki was 0.84 nM.
`COc1cccc2c1CC[C@H]1CN(CCn3c(=O)[nH]c4cscc4c3=O)C[C@@H]21` [3-[2-(6-Methoxy-1,3,3a,4,5,9b-hexahydro-benzo[e]isoindol-2-yl)-ethyl]-1H-thieno[3,4-d]pyrimidine-2,4-dione] gave a Ki of 1.01 nM.
With `COc1cccc2c1CC[C@H]1CN(CCn3c(=O)[nH]c4c(C)cc(C)cc4c3=O)C[C@@H]21` [3-[2-(6-Methoxy-1,3,3a,4,5,9b-hexahydro-benzo[e]isoindol-2-yl)-ethyl]-6,8-dimethyl-1H-quinazoline-2,4-dione] the Ki was 16.3 nM.
`COc1cccc2c1CC[C@H]1CN(CCn3c(=O)[nH]c4c(sc5ncc(Cl)nc54)c3=O)C[C@@H]21` [3-Chloro-7-[2-(6-methoxy-1,3,3a,4,5,9b-hexahydro-benzo[e]isoindol-2-yl)-ethyl]-5H-9-thia-1,4,5,7-tetraaza-fluorene-6,8-dione] was tested, and the Ki was 35.1 nM.
Work on `COc1cccc2c1CC[C@H]1CN(CCn3c(=O)[nH]c4ccsc4c3=O)C[C@@H]21` [3-[2-(6-Methoxy-1,3,3a,4,5,9b-hexahydro-benzo[e]isoindol-2-yl)-ethyl]-1H-thieno[3,2-d]pyrimidine-2,4-dione] yielded a Ki of 1.63 nM.
Work on `COc1cccc2c1CC[C@H]1CN(CCn3c(=O)[nH]c4cnccc4c3=O)C[C@@H]21` [3-[2-(6-Methoxy-1,3,3a,4,5,9b-hexahydro-benzo[e]isoindol-2-yl)-ethyl]-1H-pyrido[3,4-d]pyrimidine-2,4-dione] yielded a Ki of 3.1 nM.
`COc1cc2c(cc1OC)C(=O)N(CCN1C[C@@H]3CCc4c(OC)cccc4[C@@H]3C1)CN2` [6,7-Dimethoxy-3-[2-(6-methoxy-1,3,3a,4,5,9b-hexahydro-benzo[e]isoindol-2-yl)-ethyl]-2,3-dihydro-1H-quinazolin-4-one] was tested, and the Ki was 95.2 nM.
With `COc1ccc2c(=O)n(CCN3C[C@@H]4CCc5c(OC)cccc5[C@@H]4C3)c(=O)[nH]c2c1` [7-Methoxy-3-[2-(6-methoxy-1,3,3a,4,5,9b-hexahydro-benzo[e]isoindol-2-yl)-ethyl]-1H-quinazoline-2,4-dione] the Ki was 0.66 nM.
`COc1cccc2c1CC[C@H]1CN(CCn3c(=O)[nH]c4cc(C#N)ccc4c3=O)C[C@@H]21` [3-[2-(6-Methoxy-1,3,3a,4,5,9b-hexahydro-benzo[e]isoindol-2-yl)-ethyl]-2,4-dioxo-1,2,3,4-tetrahydro-quinazoline-7-carbonitrile] was tested, and the Ki was 1.56 nM.
Molecule `COc1cccc2c1CC[C@H]1CN(CCn3c(=O)[nH]c4cc(-c5ccccc5)sc4c3=O)C[C@@H]21` [3-[2-(6-Methoxy-1,3,3a,4,5,9b-hexahydro-benzo[e]isoindol-2-yl)-ethyl]-6-phenyl-1H-thieno[3,2-d]pyrimidine-2,4-dione] has a Ki of 11.3 nM.
With `COC(=O)c1ccc2c(=O)n(CCN3C[C@@H]4CCc5c(OC)cccc5[C@@H]4C3)c(=O)[nH]c2c1` [3-[2-(6-Methoxy-1,3,3a,4,5,9b-hexahydro-benzo[e]isoindol-2-yl)-ethyl]-2,4-dioxo-1,2,3,4-tetrahydro-quinazoline-7-carboxylic acid methyl ester] the Ki was 1.64 nM.
Work on `COc1cccc2c1CC[C@H]1CN(CCn3c(=O)[nH]c4ncccc4c3=O)C[C@@H]21` [3-[2-(6-Methoxy-1,3,3a,4,5,9b-hexahydro-benzo[e]isoindol-2-yl)-ethyl]-1H-pyrido[2,3-d]pyrimidine-2,4-dione] yielded a Ki of 3.31 nM.
With `COc1cc2[nH]c(=O)n(CCN3C[C@@H]4CCc5c(OC)cccc5[C@@H]4C3)c(=O)c2cc1Cl` [6-Chloro-7-methoxy-3-[2-(6-methoxy-1,3,3a,4,5,9b-hexahydro-benzo[e]isoindol-2-yl)-ethyl]-1H-quinazoline-2,4-dione] the Ki was 9.27 nM.
`COc1cccc2c1CC[C@H]1CN(CCn3c(=O)[nH]c4cc(C)c(C)cc4c3=O)C[C@@H]21` [3-[2-(6-Methoxy-1,3,3a,4,5,9b-hexahydro-benzo[e]isoindol-2-yl)-ethyl]-6,7-dimethyl-1H-quinazoline-2,4-dione] showed a Ki of 4.07 nM.
For `COc1cc2[nH]c(=O)n(CCN3C[C@@H]4CCc5c(OC)cccc5[C@@H]4C3)c(=O)c2cc1OC` [6,7-Dimethoxy-3-[2-(6-methoxy-1,3,3a,4,5,9b-hexahydro-benzo[e]isoindol-2-yl)-ethyl]-1H-quinazoline-2,4-dione], the Ki was 6.46 nM.
For `COc1cccc2c1CC[C@H]1CN(CCn3c(=O)[nH]c4cccnc4c3=O)C[C@@H]21` [3-[2-(6-Methoxy-1,3,3a,4,5,9b-hexahydro-benzo[e]isoindol-2-yl)-ethyl]-1H-pyrido[3,2-d]pyrimidine-2,4-dione], the Ki was 8.2 nM.
`COc1cccc2c1CC[C@H]1CN(CCn3c(=O)[nH]c4ccccc4c3=O)C[C@@H]21` [3-[2-(6-Methoxy-1,3,3a,4,5,9b-hexahydro-benzo[e]isoindol-2-yl)-ethyl]-1H-quinazoline-2,4-dione] gave a Ki of 1.16 nM.
In the case of `COc1cccc2c1CC[C@H]1CN(CCn3c(=O)[nH]c4nccnc4c3=O)C[C@@H]21` [3-[2-(6-Methoxy-1,3,3a,4,5,9b-hexahydro-benzo[e]isoindol-2-yl)-ethyl]-1H-pteridine-2,4-dione], the Ki is reported as 12.6 nM.
In the case of `COc1cccc2c1CC[C@H]1CN(CCn3c(=O)[nH]c4c(OC)cccc4c3=O)C[C@@H]21` [8-Methoxy-3-[2-(6-methoxy-1,3,3a,4,5,9b-hexahydro-benzo[e]isoindol-2-yl)-ethyl]-1H-quinazoline-2,4-dione], the Ki is reported as 2.27 nM.
